Assay results: article PMC11085448 (Molecules, 2024)
Several values for one entry are separate records, joined by “and”; a condition that tells them apart may be missing. Equal entries are not always repeated.

Tests used:
[1] = biological target: T1, human δ-opioid receptor (OPRD1) (Homo sapiens, UniProt P41143); assay: forskolin-induced cAMP accumulation assay, DOR antagonist; assay type: cell-based; parameters: host or cells: cAMP Hunter CHO-K1 (Chinese hamster ovary) cells; details: for DOR Antagonist %Imax ± SEM: CHO-K1 human DOR, versus EC50 of SNC80, Imax normalized to naltrexone
[2] = biological target: T2, human μ-opioid receptor (OPRM1) (Homo sapiens, UniProt P35372); assay: cell-based; details: for EC50: MOR Agonist EC50 ± SEM; for Emax: read-out: MOR Agonist %Emax ± SEM
T2 construct: host or cells: cAMP Hunter CHO-K1 (Chinese hamster ovary) cells

[3] = biological target: T1, human δ-opioid receptor (OPRD1); assay: forskolin-induced cAMP accumulation assay, DOR agonist; details: for Emax: CHO-K1, read-out: DOR Agonist %Emax ± SEM, CHO-K1 cells expressing human DOR; for EC50: DOR Agonist EC50 ± SEM, inhibition of forskolin-induced cAMP accumulation
[4] = biological target: T3, human κ-opioid receptor (OPRK1) (Homo sapiens, UniProt P41145); assay: forskolin-induced cAMP accumulation assay, KOR agonist; details: for Emax: CHO-K1, read-out: KOR Agonist %Emax ± SEM, CHO-K1 cells expressing human KOR, normalized to the forskolin control; for EC50: KOR Agonist EC50 ± SEM, inhibition of forskolin-induced cAMP accumulation, CHO-K1 cells expressing human KOR
[5] = biological target: T3, human κ-opioid receptor (OPRK1); assay: forskolin-induced cAMP accumulation assay, KOR antagonist
[6] = normalized to the forskolin control
[7] = CHO-K1 cells expressing human DOR

T2 sequence (P35372 whole entry): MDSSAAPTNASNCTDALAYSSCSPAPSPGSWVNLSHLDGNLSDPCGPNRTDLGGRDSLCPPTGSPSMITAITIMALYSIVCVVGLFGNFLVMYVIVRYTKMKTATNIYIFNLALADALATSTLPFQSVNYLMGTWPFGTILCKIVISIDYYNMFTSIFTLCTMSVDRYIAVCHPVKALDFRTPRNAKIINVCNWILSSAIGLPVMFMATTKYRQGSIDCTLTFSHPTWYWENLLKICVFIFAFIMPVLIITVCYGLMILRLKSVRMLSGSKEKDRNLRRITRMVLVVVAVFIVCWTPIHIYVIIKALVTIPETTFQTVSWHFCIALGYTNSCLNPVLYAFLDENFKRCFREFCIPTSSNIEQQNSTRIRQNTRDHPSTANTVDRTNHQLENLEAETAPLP
T1 sequence (P41143 whole entry): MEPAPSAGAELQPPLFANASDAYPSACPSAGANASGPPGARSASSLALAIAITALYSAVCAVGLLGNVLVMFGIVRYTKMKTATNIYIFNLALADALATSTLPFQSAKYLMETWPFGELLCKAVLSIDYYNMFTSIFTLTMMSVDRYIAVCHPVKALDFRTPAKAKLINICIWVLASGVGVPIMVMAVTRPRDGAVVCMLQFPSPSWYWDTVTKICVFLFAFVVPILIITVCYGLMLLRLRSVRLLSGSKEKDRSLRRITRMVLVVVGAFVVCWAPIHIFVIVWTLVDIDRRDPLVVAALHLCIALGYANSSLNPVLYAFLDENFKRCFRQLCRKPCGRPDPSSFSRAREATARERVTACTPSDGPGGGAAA
T3 sequence (P41145 whole entry): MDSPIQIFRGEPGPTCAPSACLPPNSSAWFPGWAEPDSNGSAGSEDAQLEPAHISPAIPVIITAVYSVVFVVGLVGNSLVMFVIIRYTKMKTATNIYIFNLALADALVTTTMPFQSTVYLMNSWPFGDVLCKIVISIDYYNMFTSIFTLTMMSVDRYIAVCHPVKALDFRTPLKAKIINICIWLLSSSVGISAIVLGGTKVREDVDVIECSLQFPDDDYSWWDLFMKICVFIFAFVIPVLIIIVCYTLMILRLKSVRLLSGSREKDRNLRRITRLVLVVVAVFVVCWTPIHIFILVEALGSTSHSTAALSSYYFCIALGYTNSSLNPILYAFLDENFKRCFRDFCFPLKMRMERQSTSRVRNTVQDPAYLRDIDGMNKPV

Oc1ccc2c3c1O[C@H]1c4[nH]c5ccccc5c4C[C@@]4(O)[C@@H](C2)N(CC2CC2)CC[C@]314 [Naltrindole, reference compound]
DOR Antagonist %Imax ± SEM [1]: 106.8 ± 4.8%

CN[C@@H]1[C@H]2CCC[C@]1(c1cccc(O)c1)CCN2CCc1ccccc1 [1R,5R,9S-10, 3-((1R,5R,9S)-9-(Methylamino)-2-phenethyl-2-azabicyclo[3.3.1]nonan-5-yl)phenol]
EC50 [2]: 83 nM and 82.8 nM
Emax [2]: 28%

N[C@@H]1[C@@H]2CCC[C@@]1(c1cccc(O)c1)CCN2CCc1ccccc1 [1S,5S,9S-22, 3-((1S,5S,9S)-9-Amino-2-phenethyl-2-azabicyclo[3.3.1]nonan-5-yl)phenol]
EC50 [2]: 94 nM and 94.1 nM
Emax [2]: 53%

N#CC=C1[C@H]2CCC[C@]1(c1cccc(O)c1)CCN2CCc1ccccc1 [1R,5R-33, 2-((1R,5R)-5-(3-hydroxyphenyl)-2-phenethyl-2-azabicyclo[3.3.1]nonan-9-ylidene)acetonitrile]
Emax [3, 6]: 69%
DOR Agonist %Emax ± SEM ([3]; CHO-K1 cells expressing human DOR, normalized to the forskolin control): 69.3 ± 6.0%
EC50 [3, 7]: 8 nM and 8.1 nM
MOR agonist potency relative to morphine (times more potent) [2]: about three times
EC50 [2]: 1.8 nM
Emax [2]: 100%
Emax [4]: > 50%
EC50 [4]: > 10000 nM

N#CC=C1[C@@H]2CCC[C@@]1(c1cccc(O)c1)CCN2CCc1ccccc1 [1S,5S-28, 2-((1S,5S)-5-(3-Hydroxyphenyl)-2-phenethyl-2-azabicyclo[3.3.1]nonan-9-ylidene)acetonitrile]
Emax [3, 6]: 51.4%
EC50 [3, 7]: 1520 ± 385 nM
EC50 [2]: 27 nM and 27.2 nM
Emax [2]: 101%
EC50 [4]: > 10000 nM
IC50 [5]: > 10000 nM

ON=C1[C@H]2CCC[C@]1(c1cccc(O)c1)CCN2CCc1ccccc1 [1R,5R-17, (1R,5R)-5-(3-Hydroxyphenyl)-2-phenethyl-2-azabicyclo[3.3.1]nonan-9-one oxime]
Emax [3, 6]: 32.2%
EC50 [3, 7]: 157 ± 72 nM
EC50 [2]: 22 nM and 22.1 nM
Emax [2]: 99%
Emax [4]: 21.2%
EC50 [4]: 146 ± 19 nM
IC50 [1]: 1080 ± 464 nM
DOR Antagonist %Imax ± SEM [1]: 66.5 ± 6.0%
IC50 [5]: > 10000 nM

N[C@H]1[C@@H]2CCC[C@@]1(c1cccc(O)c1)CCN2CCc1ccccc1 [1S,5S,9R-3, 3-((1S,5S,9R)-9-Amino-2-phenethyl-2-azabicyclo[3.3.1]nonan-5-yl)phenol]
EC50 [2]: > 10000 nM
EC50 [4]: > 10000 nM

CN[C@H]1[C@@H]2CCC[C@@]1(c1cccc(O)c1)CCN2CCc1ccccc1 [1S,5S,9R-8, 3-((1S,5S,9R)-9-(Methylamino)-2-phenethyl-2-azabicyclo[3.3.1]nonan-5-yl)phenol]
EC50 [2]: > 10000 nM
EC50 [4]: > 10000 nM

N#CC[C@@H]1[C@H]2CCC[C@]1(c1cccc(O)c1)CCN2CCc1ccccc1 [1R,5S,9S-41, 2-((1R,5S,9S)-5-(3-Hydroxyphenyl)-2-phenethyl-2-azabicyclo[3.3.1]nonan-9-yl)acetonitrile]
EC50 [2]: > 10000 nM

N[C@@H]1[C@H]2CCC[C@]1(c1cccc(O)c1)CCN2CCc1ccccc1 [1R,5R,9S-6, 3-((1R,5R,9S)-9-Amino-2-phenethyl-2-azabicyclo[3.3.1]nonan-5-yl)phenol]
Emax [3, 6]: 39.4%
EC50 [3, 7]: 690 ± 188 nM
EC50 [2]: 24 nM
Emax [2]: 91%
EC50 [4]: > 10000 nM
IC50 [1]: > 10000 nM
IC50 [5]: > 10000 nM

CNC[C@@H]1[C@H]2CCC[C@]1(c1cccc(O)c1)CCN2CCc1ccccc1 [1R,5S,9R-52, 3-((1R,5S,9R)-9-((Methylamino)methyl)-2-phenethyl-2-azabicyclo[3.3.1]nonan-5-yl)phenol]
Emax [3, 6]: 62%
EC50 [3, 7]: 502 ± 125 nM
EC50 [2]: 43 nM and 43.3 nM
Emax [2]: 94%
Emax [4]: 57%
EC50 [4]: 210 ± 92 nM

N#CC[C@@H]1[C@@H]2CCC[C@@]1(c1cccc(O)c1)CCN2CCc1ccccc1 [1S,5R,9S-34, 2-((1S,5R,9S)-5-(3-Hydroxyphenyl)-2-phenethyl-2-azabicyclo[3.3.1]nonan-9-yl)acetonitrile]
Emax [3, 6]: 61.5%
EC50 [3, 7]: 575 ± 127 nM
EC50 [2]: 27 nM and 27.3 nM
Emax [2]: 101%
EC50 [4]: > 10000 nM
IC50 [5]: > 10000 nM

N#CC[C@H]1[C@H]2CCC[C@]1(c1cccc(O)c1)CCN2CCc1ccccc1 [1R,5S,9R-35, 2-((1R,5S,9R)-5-(3-hydroxyphenyl)-2-phenethyl-2-azabicyclo[3.3.1]nonan-9-yl)acetonitrile]
Emax [3, 6]: 35%
EC50 [3, 7]: 4 nM and 4.3 nM
EC50 [2]: 0.85 nM
Emax [2]: 99%
EC50 [4]: > 10000 nM
IC50 [1]: 94.5 ± 29.5 nM
DOR Antagonist %Imax ± SEM [1]: 35.1 ± 2.6%
IC50 [5]: > 10000 nM

CNC[C@H]1[C@H]2CCC[C@]1(c1cccc(O)c1)CCN2CCc1ccccc1 [1R,5S,9S-53, 3-((1R,5S,9S)-9-((Methylamino)methyl)-2-phenethyl-2-azabicyclo[3.3.1]nonan-5-yl)phenol]
Emax [3, 6]: 17.4%
EC50 [3, 7]: 43.9 ± 22.2 nM
EC50 [2]: 16 nM and 15.9 nM
Emax [2]: 97%
EC50 [4]: > 10000 nM
IC50 [1]: 1630 ± 882 nM
DOR Antagonist %Imax ± SEM [1]: 109.3 ± 5.2%
IC50 [5]: > 10000 nM

CNC[C@@H]1[C@@H]2CCC[C@@]1(c1cccc(O)c1)CCN2CCc1ccccc1 [1S,5R,9R-47, 3-((1S,5R,9R)-9-((Methylamino)methyl)-2-phenethyl-2-azabicyclo[3.3.1]nonan-5-yl)phenol]
Emax [3, 6]: 84.7%
EC50 [3, 7]: 416 ± 21.1 nM
EC50 [2]: 3.7 nM and 3.66 nM
Emax [2]: 102%
Emax [4]: 93.4%
EC50 [4]: 95.7 ± 17 nM

N[C@H]1[C@H]2CCC[C@]1(c1cccc(O)c1)CCN2CCc1ccccc1 [1R,5R,9R-23, 3-((1R,5R,9R)-9-Amino-2-phenethyl-2-azabicyclo[3.3.1]nonan-5-yl)phenol]
Emax [3, 6]: 46.6%
EC50 [3, 7]: 186 ± 12.5 nM
EC50 [2]: 26 nM and 26.1 nM
Emax [2]: 81%
EC50 [4]: > 10000 nM
IC50 [5]: > 10000 nM

ON=C1[C@@H]2CCC[C@@]1(c1cccc(O)c1)CCN2CCc1ccccc1 [1S,5S-15, (1S,5S)-5-(3-Hydroxyphenyl)-2-phenethyl-2-azabicyclo[3.3.1]nonan-9-one oxime]
EC50 [2]: 229 nM
Emax [2]: 91%
EC50 [4]: > 10000 nM

N#CC[C@H]1[C@@H]2CCC[C@@]1(c1cccc(O)c1)CCN2CCc1ccccc1 [1S,5R,9R-38, 2-((1S,5R,9R)-5-(3-Hydroxyphenyl)-2-phenethyl-2-azabicyclo[3.3.1]nonan-9-yl)acetonitrile]
Emax [3, 6]: 46.8%
EC50 [3, 7]: 55 ± 3.9 nM
MOR agonist potency relative to morphine (times more potent) [2]: about twice
EC50 [2]: 2.5 nM
Emax [2]: 89.6%
EC50 [4]: > 10000 nM
IC50 [5]: 44 ± 4 nM
KOR Antagonist %Imax ± SEM ([5]; CHO-K1 human KOR, versus EC90 of U50488H, Imax normalized to nor-BNI): 97 ± 0.1%
